Assay results: ChEMBL document CHEMBL1201861, “Genomics of Drug Sensitity in Cancer screening data, Wellcome Trust Sanger Institute”
pIC50: −log10 of the molar value. Where “and” joins values, the source holds several entries; their conditions need not be identical. Identical values can stand only once.

Experiments:
Assay in all cases: cells
CTB-1 = assay type: functional, cell-based; conditions: Homo sapiens
Description: SANGER: Inhibition of human CTB-1 cell growth in a cell viability assay.

CTV-1 = assay type: functional, cell-based; conditions: Homo sapiens;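 also: growth inhibition of the cell line, read out with a cell viability assay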
Description: SANGER: Inhibition of human CTV-1 cell growth in a cell viability assay.

Ca-Ski = assay type: functional, cell-based; conditions: Homo sapiens;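 also: cell viability assay measuring inhibition of Ca-Ski cell growth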
Description: SANGER: Inhibition of human Ca-Ski cell growth in a cell viability assay.

D-263MG = assay type: functional, cell-based, Homo sapiens
Description: SANGER: Inhibition of human D-263MG cell growth in a cell viability assay.

DMS-114 = assay type: functional, cell-based, Homo sapiens
ETK-1 = assay type: functional, cell-based, Homo sapiens;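 also: growth inhibition of human ETK-1 cells, read out with a cell viability assay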
Description: SANGER: Inhibition of human ETK-1 cell growth in a cell viability assay.

G-401 = assay type: functional, cell-based, Homo sapiens; conditions: g-401
Description: SANGER: Inhibition of human G-401 cell growth in a cell viability assay.

GCT = assay type: functional, cell-based, Homo sapiens; conditions: gct;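 also: GCT cell line proliferation inhibition, read out with a cell viability assay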
Description: SANGER: Inhibition of human GCT cell growth in a cell viability assay.

HCC1806 = assay type: functional, cell-based, Homo sapiens; conditions: hcc1806;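 also: growth inhibition of the cancer cell line, determined with a cell viability assay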
Description: SANGER: Inhibition of human HCC1806 cell growth in a cell viability assay.

HEC-1 = assay type: functional, cell-based, Homo sapiens;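 also: growth inhibition of the cell line, read out with a cell viability assay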
Description: SANGER: Inhibition of human HEC-1 cell growth in a cell viability assay.

HT = assay type: functional, cell-based; conditions: Homo sapiens
Description: SANGER: Inhibition of human HT cell growth in a cell viability assay.

HT1197 = assay type: functional, cell-based, Homo sapiens, HT-1197; conditions: ht-1197
Description: SANGER: Inhibition of human HT-1197 cell growth in a cell viability assay.

IA-LM = assay type: functional, cell-based, Homo sapiens;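 also: cell viability assay measuring growth inhibition of human IA-LM cells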
Description: SANGER: Inhibition of human IA-LM cell growth in a cell viability assay.

KALS-1 = assay type: functional, cell-based, Homo sapiens;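 also: growth inhibition of KALS-1 cells, determined with a cell viability assay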
KP-4 = assay type: functional, cell-based, Homo sapiens; conditions: kp-4; read-out: IC50;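 also: human KP-4 cells, with growth inhibition read out through a cell viability assay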
Description: SANGER: Inhibition of human KP-4 cell growth in a cell viability assay.

KYSE-520 cell line = assay type: functional, cell-based, Homo sapiens;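 also: growth inhibition of human KYSE-520 cells, read out with a viability assay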
Description: SANGER: Inhibition of human KYSE-520 cell growth in a cell viability assay.

LAMA-84 = assay type: functional, cell-based; conditions: Homo sapiens;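 also: growth inhibition of LAMA-84 cells, read out with a cell viability assay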
Description: SANGER: Inhibition of human LAMA-84 cell growth in a cell viability assay.

LB2241-RCC = assay type: functional, cell-based, Homo sapiens;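 also: cell viability assay measuring how strongly the cultured human renal carcinoma line is prevented from growing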
Description: SANGER: Inhibition of human LB2241-RCC cell growth in a cell viability assay.

LB373-MEL-D = assay type: functional, cell-based, Homo sapiens;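 also: growth inhibition of the cell line, read out in a cell viability assay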
Description: SANGER: Inhibition of human LB373-MEL-D cell growth in a cell viability assay.

Lu-65 = assay type: functional, cell-based; conditions: Homo sapiens;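 also: growth inhibition of Lu-65 cancer cells, read out by a cell viability assay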
Description: SANGER: Inhibition of human LU-65 cell growth in a cell viability assay.

MCF7 = assay type: functional, cell-based, Homo sapiens; conditions: mcf7;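 also: growth inhibition of human MCF7 cells, read out with a cell viability assay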
Description: SANGER: Inhibition of human MCF7 cell growth in a cell viability assay.

MG-63 = assay type: functional, cell-based, Homo sapiens; conditions: mg-63;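 also: growth inhibition of human MG-63 cells, read out with a cell viability assay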
Description: SANGER: Inhibition of human MG-63 cell growth in a cell viability assay.

NB12 = assay type: functional, cell-based, Homo sapiens; conditions: nb12;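 also: growth inhibition of human NB12 cells, read out by a cell viability assay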
Description: SANGER: Inhibition of human NB12 cell growth in a cell viability assay.

NB13 = assay type: functional, cell-based, Homo sapiens;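 also: cell viability readout measuring growth inhibition of human NB13 cells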
Description: SANGER: Inhibition of human NB13 cell growth in a cell viability assay.

NB69 = assay type: functional, cell-based, Homo sapiens;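 also: growth inhibition of NB69 cells, determined by a cell viability assay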
Description: SANGER: Inhibition of human NB69 cell growth in a cell viability assay.

NCI-H1395 = assay type: functional, cell-based, Homo sapiens;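 also: cell viability assay read-out quantifying reduced proliferation of human NCI-H1395 cells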
Description: SANGER: Inhibition of human NCI-H1395 cell growth in a cell viability assay.

NCI-H1563 = assay type: functional, cell-based, Homo sapiens;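 also: growth inhibition of human NCI-H1563 cells, read out with a cell viability assay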
Description: SANGER: Inhibition of human NCI-H1563 cell growth in a cell viability assay.

NCI-H1838 = assay type: functional, cell-based, Homo sapiens;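 also: growth inhibition of NCI-H1838 cells, determined with a cell viability readout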
Description: SANGER: Inhibition of human NCI-H1838 cell growth in a cell viability assay.

NCI-H2087 = assay type: functional, cell-based, Homo sapiens;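 also: growth inhibition determined with a cell viability readout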
Description: SANGER: Inhibition of human NCI-H2087 cell growth in a cell viability assay.

NCI-H2122 = assay type: functional, cell-based, Homo sapiens; conditions: nci-h2122;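 also: growth inhibition of the cells, read out with a cell viability assay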
Description: SANGER: Inhibition of human NCI-H2122 cell growth in a cell viability assay.

NCI-H2126 = assay type: functional, cell-based, Homo sapiens;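 also: growth inhibition of the cancer cell line, determined with a cell viability readout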
Description: SANGER: Inhibition of human NCI-H2126 cell growth in a cell viability assay.

NEC8 = assay type: functional, cell-based, Homo sapiens;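 also: growth inhibition of human NEC8 cells, read out by a cell viability assay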
Description: SANGER: Inhibition of human NEC8 cell growth in a cell viability assay.

OS-RC-2 = assay type: functional, cell-based, Homo sapiens;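 also: growth inhibition of human OS-RC-2 cells, measured by a cell viability assay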
Description: SANGER: Inhibition of human OS-RC-2 cell growth in a cell viability assay.

SAS = assay type: functional, cell-based, Homo sapiens; conditions: sas;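 also: growth inhibition of SAS cells, read out with a cell viability assay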
Description: SANGER: Inhibition of human SAS cell growth in a cell viability assay.

SK-MEL-24 = assay type: functional, cell-based; conditions: Homo sapiens;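 also: growth inhibition read out by a cell viability assay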
Description: SANGER: Inhibition of human SK-MEL-24 cell growth in a cell viability assay.

SK-MEL-28 = assay type: functional, cell-based; conditions: Homo sapiens;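 also: growth inhibition of human SK-MEL-28 cells, read out with a cell viability assay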
Description: SANGER: Inhibition of human SK-MEL-28 cell growth in a cell viability assay.

SK-N-FI = assay type: functional, cell-based, Homo sapiens;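 also: cell viability assay measuring growth inhibition of human SK-N-FI cells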
Description: SANGER: Inhibition of human SK-N-FI cell growth in a cell viability assay.

SK-NEP-1 = assay type: functional, cell-based; conditions: Homo sapiens;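 also: growth inhibition of human SK-NEP-1 cells, read out by a cell viability assay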
Description: SANGER: Inhibition of human SK-NEP-1 cell growth in a cell viability assay.

SW626 = assay type: functional, cell-based, Homo sapiens; conditions: sw626;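 also: growth inhibition of SW626 cells, measured with a cell viability assay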
Description: SANGER: Inhibition of human SW626 cell growth in a cell viability assay.

SW684 = assay type: functional, cell-based, Homo sapiens;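 also: growth inhibition of human SW684 cells, measured by a cell viability assay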
Description: SANGER: Inhibition of human SW684 cell growth in a cell viability assay.

SW948 = assay type: functional, cell-based, Homo sapiens; conditions: sw948;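 also: growth inhibition of SW948 cells, read out with a cell viability assay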
Description: SANGER: Inhibition of human SW948 cell growth in a cell viability assay.

SW 962 = assay type: functional, cell-based, Homo sapiens;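 also: growth inhibition of human SW962 cells, read out by a cell viability assay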
Description: SANGER: Inhibition of human SW962 cell growth in a cell viability assay.

5637 = assay type: functional, cell-based, Homo sapiens
Description: SANGER: Inhibition of human 5637 cell growth in a cell viability assay.

A101D = assay type: functional, cell-based, Homo sapiens;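 also: growth inhibition of the cell line, measured with a viability assay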
Description: SANGER: Inhibition of human A101D cell growth in a cell viability assay.

ALL-PO = assay type: functional, cell-based; conditions: Homo sapiens;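 also: growth inhibition of ALL-PO cells, read out by a cell viability assay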
Description: SANGER: Inhibition of human ALL-PO cell growth in a cell viability assay.

BHY = assay type: functional, cell-based, Homo sapiens; conditions: bhy;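 also: cell growth inhibition read out by a viability assay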
Description: SANGER: Inhibition of human BHY cell growth in a cell viability assay.

BT-20 = assay type: functional, cell-based, Homo sapiens; conditions: bt-20;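 also: cell viability assay measuring suppression of growth in human BT-20 cells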
Description: SANGER: Inhibition of human BT-20 cell growth in a cell viability assay.

Becker = assay type: functional, cell-based, Homo sapiens;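 also: growth inhibition of Becker cells, read out with a cell viability assay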
Description: SANGER: Inhibition of human Becker cell growth in a cell viability assay.

BXPC-3 = assay type: functional, cell-based, Homo sapiens; conditions: bxpc-3;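 also: growth inhibition of human BxPC-3 cells, read out by a cell viability assay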
Description: SANGER: Inhibition of human BxPC-3 cell growth in a cell viability assay.

UACC-893 = assay type: functional, cell-based, Homo sapiens; conditions: uacc-893
Description: SANGER: Inhibition of human UACC-893 cell growth in a cell viability assay.

YKG-1 = assay type: functional, cell-based, Homo sapiens;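 also: cell growth inhibition, read out with a viability assay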
Description: SANGER: Inhibition of human YKG-1 cell growth in a cell viability assay.

In the case of Cc1cc([C@@H](C)Nc2ccccc2C(=O)O)c2nc(N3CCOCC3)cc(=O)n2c1 [AZD-6482], the pIC50 (CTB-1) was less than 5.29, the pIC50 (CTV-1) was less than 5.29 and the pIC50 (Ca-Ski) was 5.71. For the same compound, the pIC50 (D-263MG; d-263mg) was < 5.29 and 5.66, the pIC50 (DMS-114; dms-114) was less than 5.29 and the pIC50 (ETK-1; etk-1) was less than 5.29. For the same compound, the pIC50 (G-401) was 5.39 and < 5.29, the pIC50 (GCT) was less than 5.29 and the pIC50 (HCC1806) was less than 5.29. The pIC50 (HEC-1; Homo sapiens, HEC-1) was less than 5.29, the pIC50 (HEC-1; hec-1) was less than 5.29 and the pIC50 (HT) was 5.40. It also gave a pIC50 (HT1197) of less than 5.29, a pIC50 (IA-LM; ia-lm) of less than 5.29 and a pIC50 (KALS-1; Homo sapiens, KALS-1) of 5.36. For the same compound, the pIC50 (KALS-1; kals-1) was less than 5.29, the pIC50 (KP-4) was less than 5.29 and the pIC50 (KYSE-520 cell line; Homo sapiens, KYSE-520) was less than 5.29. For the same compound, the pIC50 (KYSE-520 cell line; kyse-520) was less than 5.29, the pIC50 (LAMA-84) was less than 5.29 and the pIC50 (LB2241-RCC; lb2241-rcc) was < 5.29 and 5.88. For the same compound, the pIC50 (LB373-MEL-D; lb373-mel-d) was less than 5.29, the pIC50 (Lu-65) was less than 5.29 and the pIC50 (MCF7) was < 5.29 and 5.47. For the same compound, the pIC50 (MG-63) was < 5.29 and 5.80, the pIC50 (NB12) was 5.81 and < 5.29 and the pIC50 (NB13; Homo sapiens, NB13) was less than 5.29. It also gave a pIC50 (NB13; nb13) of less than 5.29, a pIC50 (NB69; Homo sapiens, NB69) of less than 5.29 and a pIC50 (NB69; nb69) of less than 5.29. It also gave a pIC50 (NCI-H1395; nci-h1395) of less than 5.29, a pIC50 (NCI-H1563; Homo sapiens, NCI-H1563) of less than 5.29 and a pIC50 (NCI-H1563; nci-h1563) of less than 5.29. The pIC50 (NCI-H1838; nci-h1838) was less than 5.29, the pIC50 (NCI-H2087; Homo sapiens, NCI-H2087) was less than 5.29 and the pIC50 (NCI-H2087; nci-h2087) was less than 5.29. For the same compound, the pIC50 (NCI-H2122) was less than 5.29, the pIC50 (NCI-H2126; nci-h2126) was less than 5.29 and the pIC50 (NEC8; nec8) was < 5.29 and 5.42. The pIC50 (OS-RC-2; os-rc-2) was 6.20 and < 5.29, the pIC50 (SAS) was less than 5.29 and the pIC50 (SK-MEL-24) was less than 5.29. For the same compound, the pIC50 (SK-MEL-28) was less than 5.29, the pIC50 (SK-N-FI; sk-n-fi) was less than 5.29 and the pIC50 (SK-NEP-1) was less than 5.29. It also gave a pIC50 (SW626) of less than 5.29, a pIC50 (SW684; Homo sapiens, SW684) of less than 5.29 and a pIC50 (SW684; sw684) of less than 5.29. For the same compound, the pIC50 (SW948) was less than 5.29, the pIC50 (SW 962; sw 962) was < 5.29 and 5.82 and the pIC50 5637 was less than 5.29. The pIC50 (5637; Homo sapiens) was less than 5.29, the pIC50 (A101D; a101d) was 5.49 and < 5.29 and the pIC50 (ALL-PO) was less than 5.29. For the same compound, the pIC50 (BHY) was less than 5.29, the pIC50 (BT-20) was 6.23 and 5.75 and the pIC50 (Becker; becker) was 5.87 and 5.34. The pIC50 (BXPC-3) was < 5.29 and 5.46, the pIC50 (UACC-893) was 5.40 and 5.82 and the pIC50 (YKG-1; Homo sapiens, YKG-1) was less than 5.29. For the same compound, the pIC50 (YKG-1; ykg-1) was less than 5.29.
In the case of CO[C@H]1C[C@@H]2CC[C@@H](C)[C@@](O)(O2)C(=O)C(=O)N2CCCC[C@H]2C(=O)O[C@H]([C@H](C)C[C@@H]2CC[C@@H](O)[C@H](OC)C2)CC(=O)[C@H](C)/C=C(\C)[C@@H](O)[C@@H](OC)C(=O)[C@H](C)C[C@H](C)/C=C/C=C/C=C/1C [SIROLIMUS], the pIC50 (CTB-1) was less than 7.00, the pIC50 (CTV-1) was less than 7.00 and the pIC50 (D-263MG; Homo sapiens, D-263MG) was less than 7.00. For the same compound, the pIC50 (DMS-114; Homo sapiens, DMS-114) was less than 7.00, the pIC50 (ETK-1; Homo sapiens, ETK-1) was 8.55 and the pIC50 (HT) was 7.75. The pIC50 (IA-LM; Homo sapiens, IA-LM) was 7.17, the pIC50 (KALS-1; Homo sapiens, KALS-1) was 8.18 and the pIC50 (LAMA-84) was less than 7.00. The pIC50 (LB2241-RCC; Homo sapiens, LB2241-RCC) was less than 7.00, the pIC50 (LB373-MEL-D; Homo sapiens, LB373-MEL-D) was less than 7.00 and the pIC50 (Lu-65) was less than 7.00. For the same compound, the pIC50 (NB13; Homo sapiens, NB13) was 8.36, the pIC50 (NB69; Homo sapiens, NB69) was less than 7.00 and the pIC50 (NCI-H1395; Homo sapiens, NCI-H1395) was less than 7.00. It also gave a pIC50 (NCI-H1838; Homo sapiens, NCI-H1838) of less than 7.00, a pIC50 (NCI-H2126; Homo sapiens, NCI-H2126) of less than 7.00 and a pIC50 (NEC8; Homo sapiens, NEC8) of less than 7.00. It also gave a pIC50 (OS-RC-2; Homo sapiens, OS-RC-2) of 9.19, a pIC50 (SK-N-FI; Homo sapiens, SK-N-FI) of less than 7.00 and a pIC50 (SK-NEP-1) of 8.06. The pIC50 (SW684; Homo sapiens, SW684) was less than 7.00, the pIC50 (SW 962; Homo sapiens, SW 962) was less than 7.00 and the pIC50 (A101D; Homo sapiens, A101D) was 7.49. The pIC50 (ALL-PO) was less than 7.00 and the pIC50 (Becker; Homo sapiens, Becker) was 7.39.
With CCC(=O)N1CCN(c2ccc(-n3c(=O)ccc4cnc5ccc(-c6cnc7ccccc7c6)cc5c43)cc2C(F)(F)F)CC1 [TORIN1] the pIC50 (CTB-1) was 6.65, the pIC50 (CTV-1) was 7.18 and the pIC50 (D-263MG; Homo sapiens, D-263MG) was 6.18. It also gave a pIC50 (DMS-114; Homo sapiens, DMS-114) of 6.62, a pIC50 (ETK-1; Homo sapiens, ETK-1) greater than 8.33 and a pIC50 (HT) of 7.10. The pIC50 (IA-LM; Homo sapiens, IA-LM) was 7.54, the pIC50 (KALS-1; Homo sapiens, KALS-1) was 7.92 and the pIC50 (LAMA-84) was 7.66. It also gave a pIC50 (LB2241-RCC; Homo sapiens, LB2241-RCC) of less than 5.92, a pIC50 (LB373-MEL-D; Homo sapiens, LB373-MEL-D) of 6.81 and a pIC50 (Lu-65) of less than 5.92. It also gave a pIC50 (NB13; Homo sapiens, NB13) of 7.32, a pIC50 (NB69; Homo sapiens, NB69) of 6.49 and a pIC50 (NCI-H1395; Homo sapiens, NCI-H1395) of less than 5.92. For the same compound, the pIC50 (NCI-H1838; Homo sapiens, NCI-H1838) was less than 5.92, the pIC50 (NCI-H2126; Homo sapiens, NCI-H2126) was 6.94 and the pIC50 (NEC8; Homo sapiens, NEC8) was 6.25. For the same compound, the pIC50 (OS-RC-2; Homo sapiens, OS-RC-2) was 7.63, the pIC50 (SK-N-FI; Homo sapiens, SK-N-FI) was less than 5.92 and the pIC50 (SK-NEP-1) was 6.79. For the same compound, the pIC50 (SW684; Homo sapiens, SW684) was less than 5.92, the pIC50 (SW 962; Homo sapiens, SW 962) was 7.24 and the pIC50 (A101D; Homo sapiens, A101D) was 7.58. It also gave a pIC50 (ALL-PO) of 7.30 and a pIC50 (Becker; Homo sapiens, Becker) of 7.19.
Cc1cc(Nc2cc(N3CCN(C)CC3)nc(Sc3ccc(NC(=O)C4CC4)cc3)n2)n[nH]1 [TOZASERTIB] was tested, and the pIC50 (CTB-1) was less than 5.70, the pIC50 (CTV-1) was 6.23 and the pIC50 (D-263MG; Homo sapiens, D-263MG) was less than 5.70. The pIC50 (DMS-114; Homo sapiens, DMS-114) was less than 5.70, the pIC50 (ETK-1; Homo sapiens, ETK-1) was 5.94 and the pIC50 (HT) was less than 5.70. The pIC50 (IA-LM; Homo sapiens, IA-LM) was less than 5.70, the pIC50 (KALS-1; Homo sapiens, KALS-1) was less than 5.70 and the pIC50 (LAMA-84) was 6.45. It also gave a pIC50 (LB2241-RCC; Homo sapiens, LB2241-RCC) of less than 5.70, a pIC50 (LB373-MEL-D; Homo sapiens, LB373-MEL-D) of less than 5.70 and a pIC50 (Lu-65) of less than 5.70. It also gave a pIC50 (NB13; Homo sapiens, NB13) of 6.55, a pIC50 (NB69; Homo sapiens, NB69) of less than 5.70 and a pIC50 (NCI-H1395; Homo sapiens, NCI-H1395) of less than 5.70. For the same compound, the pIC50 (NCI-H1838; Homo sapiens, NCI-H1838) was less than 5.70, the pIC50 (NCI-H2126; Homo sapiens, NCI-H2126) was less than 5.70 and the pIC50 (NEC8; Homo sapiens, NEC8) was less than 5.70. For the same compound, the pIC50 (OS-RC-2; Homo sapiens, OS-RC-2) was less than 5.70, the pIC50 (SK-N-FI; Homo sapiens, SK-N-FI) was less than 5.70 and the pIC50 (SK-NEP-1) was 5.92. The pIC50 (SW684; Homo sapiens, SW684) was less than 5.70, the pIC50 (SW 962; Homo sapiens, SW 962) was less than 5.70 and the pIC50 (A101D; Homo sapiens, A101D) was 5.73. It also gave a pIC50 (ALL-PO) of 6.05 and a pIC50 (Becker; Homo sapiens, Becker) of less than 5.70.
